In US11590139B2, “Substituted aminopurine compounds, compositions thereof, and methods of treatment therewith” (Signal Pharmaceuticals, LLC, priority 2014, dated 2023):

Each compound was assayed on Lox-IMVI melanoma cell line (assay: Lox-IMVI anti-proliferative assay (growth inhibition, Cell Titer-Glo)). Settings: Homo sapiens; IC50 activity level in the cell-based Lox-IMVI anti-proliferative assay; read-out: Activity.
Format: cell-based, human
Method in brief: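 Luminescence from cellular ATP measured viability at compound addition and again after 72 h of exposure (37 °C, 5% CO2, RPMI + 10% FBS). Doses spanned 0.5 nM to 10 μM in ten 3-fold steps with 0.2% DMSO. Values were fitted as % of DMSO-treated cells by sigmoidal dose-response.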

First: N#Cc1cc(Cl)c(Nc2nc3cnc(NC4CCC(F)(F)CC4)nc3n2[C@H]2CC[C@@H](C(N)=O)CC2)c(Cl)c1 [Example 397, (1s,4s)-4-(8-(2,6-dichloro-4-cyanophenylamino)-2-(4,4-difluorocyclohexylamino)-9H-purin-9-yl)cyclohexanecarboxamide]
Second: NC(=O)[C@H]1CC[C@@H](n2c(Nc3c(F)cc(C(F)(F)F)cc3Cl)nc3cnc(NC4CCOCC4)nc32)CC1 [Example 398, (1s,4s)-4-(8-(2-chloro-6-fluoro-4-(trifluoromethyl)phenylamino)-2-(tetrahydro-2H-pyran-4-ylamino)-9H-purin-9-yl)cyclohexanecarboxamide]
The IC50 of the first is lower: less than 0.25 µM for the first, 0.5 to 1 µM for the second.

Same assay, conditions: Homo sapiens; Lox-IMVI anti-proliferative assay, IC50 activity level; read-out: Activity

Compared with `N#Cc1cc(Cl)c(Nc2nc3cnc(NC4CC(F)(F)C4)nc3n2[C@H]2CC[C@@H](C(N)=O)CC2)c(Cl)c1` [Example 399, (1s,4s)-4-(8-(2,6-dichloro-4-cyanophenylamino)-2-(3,3-difluorocyclobutylamino)-9H-purin-9-yl)cyclohexanecarboxamide], `N#Cc1cc(F)c(Nc2nc3cnc(NC4CC(F)(F)C4)nc3n2[C@H]2CC[C@@H](C(N)=O)CC2)c(Cl)c1` [Example 400, (1s,4s)-4-(8-(2-chloro-4-cyano-6-fluorophenylamino)-2-(3,3-difluorocyclobutylamino)-9H-purin-9-yl)cyclohexanecarboxamide] is higher in IC50: 0.25 to 0.5 µM for the first, 0.5 to 1 µM for the second.

`N#Cc1cc(F)c(Nc2nc3cnc(NC4CC(F)(F)C4)nc3n2[C@H]2CC[C@@H](C(N)=O)CC2)c(F)c1` [Example 401, (1s,4s)-4-(8-(4-cyano-2,6-difluorophenylamino)-2-(3,3-difluorocyclobutylamino)-9H-purin-9-yl)cyclohexanecarboxamide] and `CC[C@@H](CO)Nc1ncc2nc(Nc3c(F)cc(C#N)cc3F)n([C@H]3CC[C@@H](C(N)=O)CC3)c2n1` [Example 402, (1R,4s)-4-(8-(4-cyano-2,6-difluorophenylamino)-2-((S)-1-hydroxybutan-2-ylamino)-9H-purin-9-yl)cyclohexanecarboxamide] cannot be ordered by IC50: greater than 1 µM for the first, greater than 1 µM for the second.

`COC(=O)N1CCCC(Nc2ncc3nc(Nc4c(F)cc(F)cc4F)n([C@H]4CC[C@@H](C(N)=O)CC4)c3n2)C1` (stereo partly drawn) [Example 403, (R)-methyl 3-(9-((1s,4S)-4-carbamoylcyclohexyl)-8-(2,4,6-tnfluorophenylamino)-9H-purin-2-ylamino)piperidine-1-carboxylate] and `COC(=O)N1CCC[C@@H](Nc2ncc3nc(Nc4c(F)cc(F)cc4Cl)n([C@H]4CC[C@@H](C(N)=O)CC4)c3n2)C1` [Example 407, (R)-methyl 3-(9-((1s,4S)-4-carbamoylcyclohexyl)-8-(2-chloro-4,6-difluorophenylamino)-9H-purin-2-ylamino)piperidine-1-carboxylate] cannot be ordered by IC50: greater than 1 µM for the first, greater than 1 µM for the second.

`COC(=O)N1CCCC(Nc2ncc3nc(Nc4c(F)cccc4F)n([C@H]4CC[C@@H](C(N)=O)CC4)c3n2)C1` (stereo partly drawn) [Example 404, (R)-methyl 3-(9-((1s,4S)-4-carbamoylcyclohexyl)-8-(2,6-difluorophenylamino)-9H-purin-2-ylamino)piperidine-1-carboxylate] and `COC(=O)N1CCCC(Nc2ncc3nc(Nc4c(F)cccc4Cl)n([C@H]4CC[C@@H](C(N)=O)CC4)c3n2)C1` (stereo partly drawn) [Example 406, (R)-methyl 3-(9-((1s,4S)-4-carbamoylcyclohexyl)-8-(2-chloro-6-fluorophenylamino)-9H-purin-2-ylamino)piperidine-1-carboxylate] cannot be ordered by IC50: greater than 1 µM for the first, greater than 1 µM for the second.

Compound `COC(=O)N1CCCC(Nc2ncc3nc(Nc4c(Cl)cccc4Cl)n([C@H]4CC[C@@H](C(N)=O)CC4)c3n2)C1` (stereo partly drawn) [Example 405, (R)-methyl 3-(9-((1s,4S)-4-carbamoylcyclohexyl)-8-(2,6-dichlorophenylamino)-9H-purin-2-ylamino)piperidine-1-carboxylate] has an IC50 greater than 1 µM.
